Data taken from ChEMBL document CHEMBL4507261, “Data for DCP probe A-192621” (2021).

Assays:
[1] = biological target: Serine/threonine-protein kinase SIK2 (Homo sapiens) (UniProt Q9H0K1); settings: Compound concentration 1000.0 nM
[2] = biological target: Cyclin-dependent kinase 2 homolog (Plasmodium falciparum (isolate 3D7)) (UniProt P61075); settings: Compound concentration 1000.0 nM
[3] = biological target: cGMP-dependent protein kinase 2 (Homo sapiens) (UniProt Q13237); settings: Compound concentration 1000.0 nM
Chain of cGMP-dependent protein kinase 2 (Homo sapiens) (Q13237 whole entry): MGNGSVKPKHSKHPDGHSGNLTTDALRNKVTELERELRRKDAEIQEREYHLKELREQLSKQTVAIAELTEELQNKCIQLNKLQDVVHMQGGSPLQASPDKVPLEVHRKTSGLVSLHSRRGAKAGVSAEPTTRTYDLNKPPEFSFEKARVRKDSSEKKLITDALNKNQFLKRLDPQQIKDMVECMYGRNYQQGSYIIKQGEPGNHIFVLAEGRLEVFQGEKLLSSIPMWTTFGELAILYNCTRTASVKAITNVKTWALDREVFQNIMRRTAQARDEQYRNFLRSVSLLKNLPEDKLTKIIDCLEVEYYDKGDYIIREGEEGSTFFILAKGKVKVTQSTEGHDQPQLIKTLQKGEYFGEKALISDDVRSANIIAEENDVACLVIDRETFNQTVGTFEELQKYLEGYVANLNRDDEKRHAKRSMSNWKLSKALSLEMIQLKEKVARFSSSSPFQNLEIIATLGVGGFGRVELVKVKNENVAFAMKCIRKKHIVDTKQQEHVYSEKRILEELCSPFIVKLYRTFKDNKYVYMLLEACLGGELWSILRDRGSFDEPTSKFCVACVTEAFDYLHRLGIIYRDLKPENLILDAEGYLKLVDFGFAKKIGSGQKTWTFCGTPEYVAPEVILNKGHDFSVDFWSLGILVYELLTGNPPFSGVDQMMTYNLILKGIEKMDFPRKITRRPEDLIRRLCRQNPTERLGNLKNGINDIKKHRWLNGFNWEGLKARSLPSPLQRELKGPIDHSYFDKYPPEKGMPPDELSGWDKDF

[4] = biological target: 5'-AMP-activated protein kinase catalytic subunit alpha-1 (Homo sapiens) (UniProt Q13131); settings: Compound concentration 1000.0 nM
[5] = biological target: Casein kinase I isoform gamma-1 (Homo sapiens) (UniProt Q9HCP0); settings: Compound concentration 1000.0 nM
[6] = biological target: Death-associated protein kinase 2 (Homo sapiens) (UniProt Q9UIK4); settings: Compound concentration 1000.0 nM
Chain of Death-associated protein kinase 2 (Homo sapiens) (Q9UIK4 whole entry, looked up, canonical isoform): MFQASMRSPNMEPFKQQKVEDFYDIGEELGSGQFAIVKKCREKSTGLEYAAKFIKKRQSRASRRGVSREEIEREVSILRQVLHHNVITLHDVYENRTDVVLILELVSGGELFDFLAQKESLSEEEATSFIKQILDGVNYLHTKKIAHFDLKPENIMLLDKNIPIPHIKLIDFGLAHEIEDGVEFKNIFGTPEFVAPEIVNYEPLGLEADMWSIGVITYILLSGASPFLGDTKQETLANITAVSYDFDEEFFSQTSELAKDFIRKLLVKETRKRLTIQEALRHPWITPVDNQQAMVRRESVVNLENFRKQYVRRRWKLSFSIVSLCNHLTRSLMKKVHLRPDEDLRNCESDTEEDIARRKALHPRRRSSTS

[7] = biological target: Phosphorylase b kinase regulatory subunit alpha, liver isoform (Homo sapiens) (UniProt P46019); settings: Compound concentration 1000.0 nM
[8] = biological target: Serine/threonine-protein kinase BRSK2 (Homo sapiens) (UniProt Q8IWQ3); settings: Compound concentration 1000.0 nM
[9] = biological target: Receptor tyrosine-protein kinase erbB-3 (Homo sapiens) (UniProt P21860); settings: Compound concentration 1000.0 nM
Chain of Receptor tyrosine-protein kinase erbB-3 (Homo sapiens) (P21860 whole entry): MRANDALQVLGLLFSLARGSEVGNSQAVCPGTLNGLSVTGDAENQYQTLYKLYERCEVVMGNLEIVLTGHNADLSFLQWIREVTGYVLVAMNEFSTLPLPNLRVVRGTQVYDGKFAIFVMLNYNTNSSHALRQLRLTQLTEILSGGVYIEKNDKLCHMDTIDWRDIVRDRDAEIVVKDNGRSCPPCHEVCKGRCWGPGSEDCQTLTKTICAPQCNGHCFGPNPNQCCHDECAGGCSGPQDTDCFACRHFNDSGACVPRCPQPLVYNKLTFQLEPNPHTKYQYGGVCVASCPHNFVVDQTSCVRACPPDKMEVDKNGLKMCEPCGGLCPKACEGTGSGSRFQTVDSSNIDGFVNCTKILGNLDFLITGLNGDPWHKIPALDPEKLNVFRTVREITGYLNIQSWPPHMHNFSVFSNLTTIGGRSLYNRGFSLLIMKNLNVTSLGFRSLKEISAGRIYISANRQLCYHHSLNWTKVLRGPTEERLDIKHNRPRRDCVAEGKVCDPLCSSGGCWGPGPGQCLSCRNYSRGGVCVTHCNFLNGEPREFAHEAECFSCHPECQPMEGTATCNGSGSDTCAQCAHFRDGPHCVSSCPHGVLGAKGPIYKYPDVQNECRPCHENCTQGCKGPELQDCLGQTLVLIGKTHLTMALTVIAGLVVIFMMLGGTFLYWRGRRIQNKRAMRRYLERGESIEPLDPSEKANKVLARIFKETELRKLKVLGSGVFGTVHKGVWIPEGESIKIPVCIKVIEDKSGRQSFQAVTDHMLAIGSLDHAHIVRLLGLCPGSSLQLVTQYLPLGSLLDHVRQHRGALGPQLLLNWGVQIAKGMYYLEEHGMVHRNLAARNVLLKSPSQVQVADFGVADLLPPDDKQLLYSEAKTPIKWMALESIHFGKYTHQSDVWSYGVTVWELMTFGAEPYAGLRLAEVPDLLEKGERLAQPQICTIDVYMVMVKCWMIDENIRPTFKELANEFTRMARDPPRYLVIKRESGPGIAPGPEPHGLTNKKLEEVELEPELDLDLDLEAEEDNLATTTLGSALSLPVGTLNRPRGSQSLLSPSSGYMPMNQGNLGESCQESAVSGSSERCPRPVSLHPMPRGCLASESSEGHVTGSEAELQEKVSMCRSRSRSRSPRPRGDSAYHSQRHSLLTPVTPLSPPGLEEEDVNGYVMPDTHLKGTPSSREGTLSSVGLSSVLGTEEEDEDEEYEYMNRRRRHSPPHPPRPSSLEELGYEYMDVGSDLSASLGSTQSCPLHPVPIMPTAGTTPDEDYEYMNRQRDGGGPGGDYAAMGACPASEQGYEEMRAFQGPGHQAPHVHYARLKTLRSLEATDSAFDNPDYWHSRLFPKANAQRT

[10] = biological target: Cannabinoid receptor 2 (Homo sapiens) (UniProt P34972); experiment: CB2 (h) Eurofins-Cerep binding assay; parameters: ligand concentration 0.8 nM; settings: filed as agonist, Compound concentration 10.0 uM
[11] = biological target: Sodium-dependent noradrenaline transporter (Homo sapiens) (UniProt P23975); experiment: norepinephrine transporter (h) Eurofins-Cerep binding assay; settings: filed as antagonist, Compound concentration 10.0 uM
[12] = biological target: cAMP-dependent protein kinase catalytic subunit PRKX (Homo sapiens) (UniProt P51817); settings: Compound concentration 1000.0 nM
Chain of cAMP-dependent protein kinase catalytic subunit PRKX (Homo sapiens) (P51817 whole entry): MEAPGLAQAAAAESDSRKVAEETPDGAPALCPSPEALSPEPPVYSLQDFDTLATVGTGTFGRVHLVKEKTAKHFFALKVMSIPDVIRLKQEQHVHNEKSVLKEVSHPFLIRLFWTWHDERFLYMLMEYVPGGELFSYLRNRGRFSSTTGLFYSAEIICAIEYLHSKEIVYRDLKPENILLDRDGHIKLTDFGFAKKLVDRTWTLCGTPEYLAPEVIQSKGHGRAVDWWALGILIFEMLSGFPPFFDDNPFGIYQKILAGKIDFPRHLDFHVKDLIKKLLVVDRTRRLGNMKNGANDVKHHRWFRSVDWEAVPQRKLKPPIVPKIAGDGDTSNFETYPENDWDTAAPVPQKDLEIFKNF

[13] = biological target: Mitogen-activated protein kinase 4 (Homo sapiens) (UniProt P31152); settings: Compound concentration 1000.0 nM
[14] = biological target: Androgen receptor (Homo sapiens) (UniProt P10275); experiment: AR (h) Eurofins-Cerep binding assay; parameters: ligand concentration 1 nM; settings: filed as agonist, Compound concentration 10.0 uM
[15] = biological target: Receptor-interacting serine/threonine-protein kinase 4 (Homo sapiens) (UniProt P57078); settings: Compound concentration 1000.0 nM
[16] = biological target: Type-2 angiotensin II receptor (Homo sapiens) (UniProt P50052); experiment: AT2 (h) Eurofins-Cerep binding assay; settings: filed as agonist, Compound concentration 10.0 uM
Chain of Type-2 angiotensin II receptor (Homo sapiens) (P50052 whole entry): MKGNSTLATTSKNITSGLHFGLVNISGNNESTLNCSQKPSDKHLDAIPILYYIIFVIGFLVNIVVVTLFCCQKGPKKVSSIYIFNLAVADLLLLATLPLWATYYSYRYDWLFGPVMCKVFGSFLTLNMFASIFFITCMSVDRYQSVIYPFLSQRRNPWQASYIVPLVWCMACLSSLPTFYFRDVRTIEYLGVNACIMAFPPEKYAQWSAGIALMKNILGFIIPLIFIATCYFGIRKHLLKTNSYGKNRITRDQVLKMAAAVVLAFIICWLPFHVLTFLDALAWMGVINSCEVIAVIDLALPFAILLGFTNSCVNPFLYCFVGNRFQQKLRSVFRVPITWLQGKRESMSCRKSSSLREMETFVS

[17] = biological target: 5-hydroxytryptamine receptor 2B (Homo sapiens) (UniProt P41595); experiment: 5-HT2B (h) Eurofins-Cerep binding assay; parameters: ligand concentration 0.2 nM; settings: filed as agonist, Compound concentration 10.0 uM
Chain of 5-hydroxytryptamine receptor 2B (Homo sapiens) (P41595 whole entry): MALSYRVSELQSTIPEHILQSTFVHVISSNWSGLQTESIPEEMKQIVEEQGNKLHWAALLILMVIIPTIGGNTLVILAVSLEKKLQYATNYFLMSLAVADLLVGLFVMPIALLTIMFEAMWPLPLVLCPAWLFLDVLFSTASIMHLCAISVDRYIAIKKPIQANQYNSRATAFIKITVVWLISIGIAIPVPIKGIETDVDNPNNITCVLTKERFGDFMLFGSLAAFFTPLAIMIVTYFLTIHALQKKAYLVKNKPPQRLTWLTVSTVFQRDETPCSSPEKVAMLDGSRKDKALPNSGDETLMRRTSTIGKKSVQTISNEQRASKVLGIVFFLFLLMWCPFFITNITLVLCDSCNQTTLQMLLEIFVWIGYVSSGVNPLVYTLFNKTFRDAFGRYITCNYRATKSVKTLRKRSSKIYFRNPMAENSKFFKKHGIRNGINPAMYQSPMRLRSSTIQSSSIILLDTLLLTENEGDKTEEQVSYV

[18] = biological target: Ribosomal protein S6 kinase alpha-5 (Homo sapiens) (UniProt O75582); settings: Compound concentration 1000.0 nM
[19] = biological target: Serine/threonine-protein kinase ULK3 (Homo sapiens) (UniProt Q6PHR2); settings: Compound concentration 1000.0 nM
[20] = biological target: Serine/threonine-protein kinase MRCK beta (Homo sapiens) (UniProt Q9Y5S2); settings: Compound concentration 1000.0 nM
[21] = biological target: Peroxisome proliferator-activated receptor gamma (Homo sapiens) (UniProt P37231); experiment: PPARgamma (h) Eurofins-Cerep binding assay; parameters: ligand concentration 5 nM; settings: filed as agonist, Compound concentration 10.0 uM
[22] = biological target: MAP kinase-activated protein kinase 5 (Homo sapiens) (UniProt Q8IW41); settings: Compound concentration 1000.0 nM
[23] = biological target: Vasoactive intestinal polypeptide receptor 1 (Homo sapiens) (UniProt P32241); experiment: VPAC1 (VIP1) (h) Eurofins-Cerep binding assay; parameters: ligand concentration 0.04 nM; settings: filed as agonist, Compound concentration 10.0 uM
[24] = biological target: Cyclin-dependent kinase-like 2 (Homo sapiens) (UniProt Q92772); settings: Compound concentration 1000.0 nM
[25] = biological target: Serine/threonine-protein kinase 38 (Homo sapiens) (UniProt Q15208); settings: Compound concentration 1000.0 nM
[26] = biological target: Serine/threonine-protein kinase RIO1 (Homo sapiens) (UniProt Q9BRS2); settings: Compound concentration 1000.0 nM
[27] = biological target: Phosphatidylinositol 4-kinase beta (Homo sapiens) (UniProt Q9UBF8); settings: Compound concentration 1000.0 nM
Chain of Phosphatidylinositol 4-kinase beta (Homo sapiens) (Q9UBF8 2-816 limits assumed): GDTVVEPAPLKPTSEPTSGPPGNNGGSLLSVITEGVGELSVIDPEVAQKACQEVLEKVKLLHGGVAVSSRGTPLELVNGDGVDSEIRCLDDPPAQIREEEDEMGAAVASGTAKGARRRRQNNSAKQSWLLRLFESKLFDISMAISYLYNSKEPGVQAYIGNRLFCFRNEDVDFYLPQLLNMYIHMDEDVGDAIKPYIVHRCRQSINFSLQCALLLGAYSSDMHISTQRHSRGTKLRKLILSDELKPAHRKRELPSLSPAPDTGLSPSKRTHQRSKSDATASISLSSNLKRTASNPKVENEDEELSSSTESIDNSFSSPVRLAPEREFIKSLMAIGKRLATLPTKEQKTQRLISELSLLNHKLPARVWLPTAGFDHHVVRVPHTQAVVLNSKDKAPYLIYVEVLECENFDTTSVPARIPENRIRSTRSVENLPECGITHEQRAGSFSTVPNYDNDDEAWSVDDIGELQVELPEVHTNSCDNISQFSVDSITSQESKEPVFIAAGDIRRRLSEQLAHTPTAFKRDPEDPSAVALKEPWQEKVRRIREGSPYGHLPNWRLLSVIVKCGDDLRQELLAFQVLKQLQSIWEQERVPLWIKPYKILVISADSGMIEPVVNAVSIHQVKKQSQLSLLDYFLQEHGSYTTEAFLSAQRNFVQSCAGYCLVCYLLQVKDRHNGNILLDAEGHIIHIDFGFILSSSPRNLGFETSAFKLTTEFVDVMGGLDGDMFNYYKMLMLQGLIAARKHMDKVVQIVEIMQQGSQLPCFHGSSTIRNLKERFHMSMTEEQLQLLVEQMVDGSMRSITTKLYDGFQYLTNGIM

[28] = test system: Mast/stem cell growth factor receptor Kit (Homo sapiens), P10721 [V559D,T670I]; settings: Compound concentration 1000.0 nM
[29] = biological target: Non-receptor tyrosine-protein kinase TYK2 (Homo sapiens) (UniProt P29597); settings: Compound concentration 1000.0 nM
[30] = biological target: 5-hydroxytryptamine receptor 1B (Homo sapiens) (UniProt P28222); experiment: 5-HT1B(h) Eurofins-Cerep binding assay; parameters: ligand concentration 1 nM; settings: filed as antagonist, Compound concentration 10.0 uM
[31] = biological target: Serine/threonine-protein kinase B-raf (Homo sapiens) (UniProt P15056); settings: Compound concentration 1000.0 nM
[32] = biological target: Dual specificity mitogen-activated protein kinase kinase 1 (Homo sapiens) (UniProt Q02750); settings: Compound concentration 1000.0 nM
[33] = biological target: Casein kinase I isoform alpha (Homo sapiens) (UniProt P48729); settings: Compound concentration 1000.0 nM
Chain of Casein kinase I isoform alpha (Homo sapiens) (P48729 2-337 limits assumed): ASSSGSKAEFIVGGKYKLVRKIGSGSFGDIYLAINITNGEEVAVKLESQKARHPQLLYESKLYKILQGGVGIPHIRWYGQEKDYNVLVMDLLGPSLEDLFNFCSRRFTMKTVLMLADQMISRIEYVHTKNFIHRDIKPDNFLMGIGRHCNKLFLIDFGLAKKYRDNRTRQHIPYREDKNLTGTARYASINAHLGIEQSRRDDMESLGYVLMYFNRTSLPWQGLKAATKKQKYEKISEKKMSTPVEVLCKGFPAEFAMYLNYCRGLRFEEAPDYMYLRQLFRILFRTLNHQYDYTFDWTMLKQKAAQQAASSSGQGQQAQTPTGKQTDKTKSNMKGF

[34] = biological target: Testis-specific serine/threonine-protein kinase 3 (Homo sapiens) (UniProt Q96PN8); settings: Compound concentration 1000.0 nM
[35] = biological target: Dual specificity mitogen-activated protein kinase kinase 7 (Homo sapiens) (UniProt O14733); settings: Compound concentration 1000.0 nM
[36] = biological target: Cyclin-dependent kinase 11A (Homo sapiens) (UniProt Q9UQ88); settings: Compound concentration 1000.0 nM
[37] = biological target: T1, 5-hydroxytryptamine receptor 2C (Homo sapiens) (UniProt P28335); experiment: 5-HT2C (h) Eurofins-Cerep binding assay; parameters: ligand concentration 1 nM; settings: filed as antagonist, Compound concentration 10.0 uM
T1 sequence (whole entry): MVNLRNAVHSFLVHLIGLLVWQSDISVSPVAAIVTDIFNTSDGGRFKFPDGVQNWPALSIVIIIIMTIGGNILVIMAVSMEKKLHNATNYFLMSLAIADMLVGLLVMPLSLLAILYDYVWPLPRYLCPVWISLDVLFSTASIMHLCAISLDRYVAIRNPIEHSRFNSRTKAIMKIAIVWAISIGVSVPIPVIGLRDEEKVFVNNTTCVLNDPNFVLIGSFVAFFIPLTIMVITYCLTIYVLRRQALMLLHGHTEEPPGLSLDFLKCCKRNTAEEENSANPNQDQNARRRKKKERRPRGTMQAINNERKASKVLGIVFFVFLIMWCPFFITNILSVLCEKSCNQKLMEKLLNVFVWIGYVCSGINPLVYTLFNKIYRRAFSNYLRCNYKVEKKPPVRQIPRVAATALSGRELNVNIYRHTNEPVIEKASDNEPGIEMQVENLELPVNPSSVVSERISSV

[38] = biological target: Hormonally up-regulated neu tumor-associated kinase (Homo sapiens) (UniProt P57058); settings: Compound concentration 1000.0 nM
[39] = biological target: Proto-oncogene tyrosine-protein kinase receptor Ret (Homo sapiens) (UniProt P07949); settings: Compound concentration 1000.0 nM

Row | Structure (SMILES) | residual activity [1] | residual activity [2] | residual activity [3] | residual activity [4] | residual activity [5] | residual activity [6] | residual activity [7] | residual activity [8] | residual activity [9] | % Inhibition of Control Specific Binding (Mean n=2) [10] | % Inhibition of Control Specific Binding (Mean n=2) [11] | residual activity [12] | residual activity [13] | % Inhibition of Control Specific Binding (Mean n=2) [14] | residual activity [15] | % Inhibition of Control Specific Binding (Mean n=2) [16] | % Inhibition of Control Specific Binding (Mean n=2) [17] | residual activity [18] | residual activity [19] | residual activity [20] | further results
1 | CCCOc1ccc([C@H]2[C@H](C(=O)O)[C@@H](c3ccc4c(c3)OCO4)CN2CC(=O)Nc2c(CC)cccc2CC)cc1 [A-192621] | 89% | 87% | 82% | 100% | 100% | 100% | 86% | 97% | 78% | 33.6% | 16.2% | 91% | 93% | -11.6% | 69% | 2.5% | -1.9% | 89% | 72% | 87% | % Inhibition of Control Specific Binding (Mean n=2) [21]: 40.3%; residual activity [22]: 65%; % Inhibition of Control Specific Binding (Mean n=2) [23]: -7.7%; residual activity [24]: 84%; residual activity [25]: 77%; residual activity [26]: 86%; residual activity [27]: 75%; residual activity [28]: 87%; residual activity [29]: 80%; % Inhibition of Control Specific Binding (Mean n=2) [30]: 12.3%; residual activity [31]: 80%; residual activity [32]: 66%; residual activity [33]: 72%; residual activity [34]: 58%; residual activity [35]: 74%; residual activity [36]: 98%; % Inhibition of Control Specific Binding (Mean n=2) [37]: 1.2%; residual activity [38]: 100%; residual activity [39]: 86%
2 | CCCOc1ccc([C@@H]2[C@@H](C(=O)O)[C@H](c3ccc4c(c3)OCO4)CN2CC(=O)Nc2c(CC)cccc2CC)cc1 [A-1806262] | 96% | 97% | 83% | 96% | 97% | 80% | 74% | 100% | 84% | 14.6% | 1.6% | 89% | 95% | -11.6% | 100% | 20.8% | -16.5% | 97% | 83% | 97% | % Inhibition of Control Specific Binding (Mean n=2) [21]: 67%; residual activity [22]: 87%; % Inhibition of Control Specific Binding (Mean n=2) [23]: -1.5%; residual activity [24]: 96%; residual activity [25]: 83%; residual activity [26]: 100%; residual activity [27]: 100%; residual activity [28]: 100%; residual activity [29]: 81%; % Inhibition of Control Specific Binding (Mean n=2) [30]: 13.4%; residual activity [31]: 96%; residual activity [32]: 93%; residual activity [33]: 73%; residual activity [34]: 81%; residual activity [35]: 91%; residual activity [36]: 100%; % Inhibition of Control Specific Binding [37]: 0%; residual activity [38]: 70%; residual activity [39]: 97%
